Source: ChEMBL document CHEMBL6096672, “In Silico Enabled Discovery of KAI-11101, a Preclinical DLK Inhibitor for the Treatment of Neurodegenerative Disease and Neuronal Injury” (J Med Chem, 2025)
≈ marks a conversion by molar mass, not a printed value. Values belong to the molecule of their own block, whether it stands above or below them. Calls of active or inactive are those of the source. The rule behind the calls is not given here.

How the values were obtained:
[1] = Drug metabolism in PO-dosed dog plasma assessed as formation of N-methylated metabolites; format: ADME, Canis lupus familiaris
CYP3A [2] = target: T1, CYP3A (Homo sapiens, UniProt P08684+P20815+P24462+Q9HB55); assay: Binding affinity to CYP3A in human liver microsomes assessed as inactivation constant; format: ADME, Microsome
[3] = Ratio of unbound drug concentration in brain to plasma of rat; format: ADME; conditions: brain and plasma, read-out: K(p,uu,brain)
[4] = Oral bioavailability in dog; format: ADME, organism-based, Canis lupus familiaris; conditions: in vivo
[5] = Protection against paclitaxel-induced axon degeneration in C57/Bl6 mouse DRG neurons measured after 72 hrs by immunofluorescence based analysis; format: functional, cell-based; conditions: drg neuron
[6] = Intrinsic clearance in dog liver microsomes; format: ADME, Canis lupus familiaris, Microsome; conditions: read-out: CLH
[7] = Half life in IV-dosed dog; format: ADME, Canis lupus familiaris; conditions: in vivo
[8] = Total unbound drug concentration in mouse brain at 3 to 75 mg/kg, po measured after 2 hrs; format: ADME, organism-based; conditions: in vivo, dose 3-75 mg/kg
[9] = Oral bioavailability in rat; format: ADME, organism-based; conditions: in vivo
[10] = Unbound fraction in mouse brain at 3 to 75 mg/kg, po measured after 2 hrs; format: ADME, organism-based; conditions: in vivo, dose 3-75 mg/kg
[11] = Total drug concentration in mouse brain at 3 to 75 mg/kg, po measured after 2 hrs; format: ADME, organism-based; conditions: dose 3-75 mg/kg, read-out: Ct
[12] = Oral bioavailability in mouse; format: ADME, organism-based; conditions: in vivo
[13] = Volume of distribution at steady state in IV-dosed dog; format: ADME, Canis lupus familiaris; conditions: in vivo, read-out: Vdss
[14] = Inhibition of GST-tagged LZK (1 to 966 residues)(unknown origin) using MKK4 as substrate preincubated for 60 mins followed by substrate/ATP addition measured after 30 mins by HTRF assay; parameters: species or system Homo sapiens
[15] = Clearance in IV-dosed rat; format: ADME; conditions: in vivo
[16] = Inhibition of DLK in C57/Bl6 mouse DRG neuron model of paclitaxel-induced axon degeneration assessed as decrease in p-cJun level measured after 20 hrs by immunofluorescence based analysis; format: cell-based
[17] = Oral bioavailability in cynomolgous monkey; format: ADME, organism-based, Macaca fascicularis; conditions: cynomolgus monkey, in vivo
[18] = Half life in IV-dosed mouse; format: ADME; conditions: in vivo
[19] = Volume of distribution at steady state in IV-dosed mouse; format: ADME; conditions: in vivo, read-out: Vdss
[20] = Cytotoxicity against human HepG2 cells; format: toxicity, cell-based
CYP3A4 = CYP3A4 (Homo sapiens, UniProt P08684); assay: Time dependent inhibition of CYP3A4 (unknown origin) at 30 uM incubated for 30 mins relative to control; format: ADME; conditions: read-out: TDI
Chain of CYP3A4 (P08684 whole entry): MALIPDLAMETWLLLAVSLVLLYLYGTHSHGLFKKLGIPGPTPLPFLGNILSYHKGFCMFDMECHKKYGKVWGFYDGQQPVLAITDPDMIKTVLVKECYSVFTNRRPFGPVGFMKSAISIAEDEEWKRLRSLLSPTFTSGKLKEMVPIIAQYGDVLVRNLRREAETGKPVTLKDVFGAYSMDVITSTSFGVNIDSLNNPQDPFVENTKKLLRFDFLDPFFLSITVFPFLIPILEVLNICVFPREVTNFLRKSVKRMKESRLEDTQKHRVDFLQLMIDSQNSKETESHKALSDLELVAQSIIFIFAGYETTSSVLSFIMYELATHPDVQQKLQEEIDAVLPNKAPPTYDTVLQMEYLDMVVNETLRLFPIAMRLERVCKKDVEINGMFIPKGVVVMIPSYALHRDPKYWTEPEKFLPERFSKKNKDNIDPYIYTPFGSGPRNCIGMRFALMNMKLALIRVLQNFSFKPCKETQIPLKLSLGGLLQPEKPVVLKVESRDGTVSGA

[21] = Drug metabolism in dog hepatocytes assessed as formation of N-methylated metabolites; format: ADME, cell-based, Canis lupus familiaris, Hepatocyte
[22] = Half life in IV-dosed cynomolgous monkey; format: ADME, Macaca fascicularis; conditions: cynomolgus monkey, in vivo
[23] = Protection against paclitaxel-induced axon degeneration in C57/Bl6 mouse DRG neurons at 0.74 uM measured after 72 hrs by immunofluorescence based analysis relative to control; format: functional; conditions: C57/Bl6, DRG neuron
[24] = Drug metabolism in cynomolgous monkey hepatocytes assessed as formation of N-methylated metabolites; format: ADME, cell-based, Macaca fascicularis, Hepatocyte; conditions: cynomolgus monkey
[25] = target: Voltage-gated inwardly rectifying potassium channel KCNH2 (Homo sapiens, UniProt Q12809); assay: Inhibition of hERG by patch-clamp method; format: toxicity
Chain of Voltage-gated inwardly rectifying potassium channel KCNH2 (Q12809 whole entry): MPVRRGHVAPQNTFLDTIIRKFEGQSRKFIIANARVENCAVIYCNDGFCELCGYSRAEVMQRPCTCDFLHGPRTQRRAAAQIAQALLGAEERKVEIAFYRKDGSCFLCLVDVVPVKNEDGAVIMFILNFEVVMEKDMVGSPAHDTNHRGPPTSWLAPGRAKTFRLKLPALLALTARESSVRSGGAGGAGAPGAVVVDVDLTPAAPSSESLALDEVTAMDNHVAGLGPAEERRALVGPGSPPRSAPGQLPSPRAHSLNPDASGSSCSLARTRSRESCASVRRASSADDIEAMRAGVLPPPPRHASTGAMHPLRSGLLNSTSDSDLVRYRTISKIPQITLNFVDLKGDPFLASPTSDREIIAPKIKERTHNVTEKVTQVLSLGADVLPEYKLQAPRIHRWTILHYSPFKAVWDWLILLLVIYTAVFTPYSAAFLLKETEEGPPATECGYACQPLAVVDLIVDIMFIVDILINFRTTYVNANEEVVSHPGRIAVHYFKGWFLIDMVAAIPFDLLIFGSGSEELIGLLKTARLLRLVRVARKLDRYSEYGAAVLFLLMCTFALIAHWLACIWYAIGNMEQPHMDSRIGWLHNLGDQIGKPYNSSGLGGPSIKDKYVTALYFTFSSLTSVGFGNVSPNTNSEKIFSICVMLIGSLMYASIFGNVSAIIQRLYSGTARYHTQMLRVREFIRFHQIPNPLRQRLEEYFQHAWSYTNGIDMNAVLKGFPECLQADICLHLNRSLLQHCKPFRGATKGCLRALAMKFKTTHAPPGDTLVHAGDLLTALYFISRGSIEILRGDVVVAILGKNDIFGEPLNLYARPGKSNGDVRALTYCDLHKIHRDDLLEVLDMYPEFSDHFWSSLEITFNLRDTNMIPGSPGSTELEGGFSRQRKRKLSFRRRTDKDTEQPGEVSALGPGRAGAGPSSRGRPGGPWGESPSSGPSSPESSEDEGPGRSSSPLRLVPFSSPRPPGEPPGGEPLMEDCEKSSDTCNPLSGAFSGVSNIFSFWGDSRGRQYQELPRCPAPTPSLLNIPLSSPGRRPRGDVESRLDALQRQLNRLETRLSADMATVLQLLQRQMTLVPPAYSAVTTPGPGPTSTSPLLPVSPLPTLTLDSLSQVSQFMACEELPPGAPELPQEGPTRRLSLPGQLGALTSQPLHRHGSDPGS

[26] = Drug metabolism in rat hepatocytes assessed as formation of N-methylated metabolites; format: ADME, cell-based, Hepatocyte
[27] = Drug metabolism in human hepatocytes assessed as formation of N-methylated metabolites; format: ADME, cell-based, Hepatocyte
CYP3A [28] = target: T1, CYP3A; assay: Binding affinity to CYP3A in human liver microsomes assessed as inhibition constant; format: ADME, Microsome
[29] = Inhibition of GST-tagged DLK (1 to 520 residues)(unknown origin) using MKK4 as substrate preincubated for 60 mins followed by substrate/ATP addition measured after 30 mins by HTRF assay; parameters: species or system Homo sapiens
[30] = Volume of distribution at steady state in IV-dosed rat; format: ADME; conditions: in vivo, read-out: Vdss
[31] = Half life in IV-dosed rat; format: ADME; conditions: in vivo
[32] = Intrinsic clearance in mouse liver microsomes; format: ADME, Microsome; conditions: read-out: CLH
[33] = Volume of distribution at steady state in IV-dosed cynomolgous monkey; format: ADME, Macaca fascicularis; conditions: cynomolgus monkey, in vivo, read-out: Vdss
[34] = Clearance in IV-dosed cynomolgous monkey; format: ADME, Macaca fascicularis; conditions: cynomolgus monkey, in vivo
[35] = Clearance in IV-dosed dog; format: ADME, Canis lupus familiaris; conditions: in vivo
[36] = Clearance in IV-dosed mouse; format: ADME; conditions: in vivo
[37] = Inhibition of human DLK transfected in HEK293-T-REx cells assessed as decrease in JNK phosphorylation incubated for 5 hrs by HTRF assay; format: cell-based
[38] = In vivo inhibition of DLK in mouse cerebellum at 3 to 75 mg/kg, po measured after 2 hrs; format: functional, organism-based
[39] = Ratio of unbound drug concentration in brain to plasma of CD-1 mouse at 5 to 75 mg/kg, po; format: ADME, organism-based; conditions: brain and plasma, dose 5-75 mg/kg, read-out: K(p,uu,brain)
[40] = Intrinsic clearance in human liver microsomes; format: ADME, Microsome; conditions: read-out: CLH
[41] = Kinetic solubility of compound at pH 6.8; format: physicochemical; conditions: buffer, read-out: Kinetic_solubility
[42] = Apparent permeability across apical to basal side in MDCK-MDR1 cells; format: ADME, cell-based, Canis lupus familiaris; conditions: dog
[43] = Clearance in mouse at 5 mg/kg, po; format: ADME, organism-based; conditions: in vivo
[44] = Ratio of unbound drug concentration in brain to plasma of mouse at 5 mg/kg; format: ADME, organism-based; conditions: brain and plasma, read-out: K(p,uu,brain)
DRG neuron = assay: Protection against paclitaxel-induced axon degeneration in C57/Bl6 mouse DRG neurons at 1 uM measured after 72 hrs by immunofluorescence based analysis; format: functional, cell-based
[45] = Efflux ratio in MDCK-MDR1 cells; format: ADME, cell-based, Canis lupus familiaris; conditions: dog
[46] = Oral bioavailability in mouse at 5 mg/kg; format: ADME, organism-based; conditions: in vivo
[47] = Half life in mouse at 5 mg/kg, po; format: ADME, organism-based; conditions: in vivo
[48] = Energy of neutralization, pKa of compound; format: physicochemical

solubility kinetic [41]: 295 µM (≈ 124 µg/mL) | Papp A→B [42]: 37.6 ×10⁻⁶ cm/s | kinact (CYP3A [2]): 0.00113 s⁻¹ | CL/F [43]: 40 mL/min/kg | EC50 [5]: 305 nM | Kp uu [44]: 0.17 | efflux ratio [45]: 0.7 | bioavailability [46]: 141% | inhibition at 0.5 h, 30 µM (CYP3A4): 72% | half-life [47]: 48 min | Ki (CYP3A [28]): 12.4 µM | pKa [48]: 5.8 | Ki [29]: 0.8 nM | microsomal CLint [32]: 1 µL/min/mg | IC50 [37]: 48 nM | microsomal CLint [40]: 6 µL/min/mg
SMILES: CCc1nc(-c2cnc(N)c(OC(F)(F)F)c2)c2ccc([C@H]3COCCN3C)cn12
Activity (DRG neuron): Active | IC50 [25]: 16 µM

solubility kinetic [41]: 284 µM (≈ 115 µg/mL) | Papp A→B [42]: 30.1 ×10⁻⁶ cm/s | CL/F [43]: 109 mL/min/kg | Kp uu [44]: 0.14 | efflux ratio [45]: 0.8 | bioavailability [46]: 144% | half-life [47]: 18 min | microsomal CLint [32]: 17 µL/min/mg | microsomal CLint [40]: 8 µL/min/mg
SMILES: CCc1nc(-c2cnc(N)c(OC(F)F)c2)c2ccc([C@H]3COCCN3C)cn12

The remaining lines, values behind:

SMILES: CCn1nc(-c2cnc(N)c(OC(F)F)c2)c2ccn([C@@H]3CCC(F)(F)C[C@@H]3OC)c(=O)c21
Drug metabolism [1]: metabolite_detected | kinact (CYP3A [2]): 0.00117 s⁻¹ | Kp uu [3]: 0.6 | bioavailability [4]: 81% | EC50 [5]: 363 nM | microsomal CLint [6]: 5.8 µL/min/mg | half-life [7]: 396 min | Drug uptake(free) [8]: 14.5 ng/g | bioavailability [9]: 57% | Fu [10]: 1.5% | concentration at 2 h [11]: 1000 ng/g | bioavailability [12]: 53% | Vd [13]: 8.8 L/kg | Ki [14]: 15 nM | clearance [15]: 8.3 mL/min/kg | IC50 [16]: 95 nM | bioavailability [17]: 52% | half-life [18]: 288 min | Vd [19]: 1.6 L/kg | IC50 [20]: 52 µM | inhibition at 0.5 h, 30 µM (CYP3A4): 27.5% | Drug metabolism [21]: metabolite_detected | half-life [22]: 720 min | Emax at 0.74 µM [23]: 72% | Drug metabolism [24]: metabolite_detected | IC50 [25]: 9 µM | Drug metabolism [26]: metabolite_detected | Drug metabolism [27]: metabolite_detected | Ki (CYP3A [28]): 170 µM | Ki [29]: 0.69 nM | Vd [30]: 4.3 L/kg | half-life [31]: 432 min | microsomal CLint [32]: 18 µL/min/mg | Vd [33]: 4.8 L/kg | clearance [34]: 5.5 mL/min/kg | clearance [35]: 24 mL/min/kg | clearance [36]: 5.3 mL/min/kg | IC50 [37]: 51 nM | IC50 [38]: 31 nM | Kp uu [39]: 0.3 | microsomal CLint [40]: < 3 µL/min/mg

SMILES: Nc1ncc(-c2cc(N3C[C@@H]4C[C@H]3CO4)nc(N3CCC(F)(F)C3)n2)cc1OC(F)F [GDC-0134]
EC50 [5]: 475 nM | Ki [14]: 7 nM | IC50 [16]: 301 nM | Emax at 0.74 µM [23]: 75% | Ki [29]: 3.5 nM | IC50 [37]: 79 nM

SMILES: CCc1nc(-c2cnc(N)c(C(F)(F)F)c2)c2ccc(C3CCN(C)CC3)cn12
solubility kinetic [41]: 268 µM (≈ 108 µg/mL) | Papp A→B [42]: 10.6 ×10⁻⁶ cm/s | CL/F [43]: 43 mL/min/kg | Kp uu [44]: 0.18 | efflux ratio [45]: 1.6 | bioavailability [46]: 85% | half-life [47]: 228 min | IC50 [25]: < 0.4 µM | pKa [48]: 9.2 | Ki [29]: 0.3 nM | microsomal CLint [32]: 15 µL/min/mg | IC50 [37]: 23 nM | microsomal CLint [40]: 3 µL/min/mg
